Assay type in all cases: functional
Assay [1] is described as follows: (§1) Cytotoxicity against human A375P cells assessed as cell viability after 24 hrs by MTT assay. On the technique in general: Tetrazolium assays rely on reduction of a dye to a coloured formazan, in cell work by metabolically active cells.
Assay [2] in a line: (§2) Cytotoxicity against human U937 cells assessed as cell viability after 24 hrs by MTT assay. The following applies: U-937, 24 h.
For another assay, the system named is U-937. The description is as §2.
For the next assay, the system named is A375P. Described as §1.

Active and inactive are the calls of the source. The calls are words filed in the database; no cut-off is given here. Where only a bound is given, the exact number is not on record here.

In general, GI50 refers to the concentration at which growth is held to half of that of the control. As for `C[C@H](O)CNc1nccc(-n2ccnc2Cc2cccc(NC(=O)Cc3ccc(-c4ccccc4)cc3)c2)n1`, the figures for the GI50 in assay [1] and in assay [2] were 11.2 µM and 10 µM, respectively.

On to `C[C@H](O)CNc1nccc(-n2ccnc2Cc2cccc(NC(=O)c3ccc(-c4ccccc4)cc3)c2)n1`, for which the 50% growth inhibitory concentration (GI50) in assay [1] stood at 0.6 µM; in assay [2] it was 1.68 µM.

Turning to `C[C@H](O)CNc1nccc(-n2ccnc2C(=O)c2cccc(NC(=O)Nc3ccc(Cl)cc3)c2)n1`, the GI50 in assay [1] and in assay [2] was over 30 µM in each case.

As for `C[C@H](O)CNc1nccc(-n2ccnc2C(=O)c2ccc(NC(=O)c3ccc(C(F)(F)F)c(N4CCOCC4)c3)cc2)n1`, in assay [1], the GI50 is 7.07 µM. In addition, in the assay on U-937, the GI50 result is “inactive”.

Consider `C[C@H](O)CNc1nccc(-n2ccnc2C(=O)c2ccc(NC(=O)c3ccc(Cl)cc3)cc2)n1`, for which the concentration for 50% growth inhibition (GI50) in assay [1] and in assay [2] was over 30 µM each time.

With `C[C@H](O)CNc1nccc(-n2ccnc2Cc2cccc(NC(=O)c3ccccc3Sc3ccccc3C#N)c2)n1`, the GI50 result with A375P is “inactive”. Moreover, the GI50 in assay [2] is 10 µM.

Regarding `C[C@H](O)CNc1nccc(-n2ccnc2Cc2cccc(NC(=O)c3cc(N4CCN(C)CC4)cc(C(F)(F)F)c3)c2)n1`, the GI50 was 12.3 µM in assay [1] and over 30 µM in assay [2].

Turning to `C[C@H](O)CNc1nccc(-n2ccnc2Cc2cccc(NC(=O)c3ccccc3-c3ccccc3)c2)n1`, the GI50 entry in the assay with A375P and in the assay with U-937 was “inactive” throughout.

For the compound `C[C@H](O)CNc1nccc(-n2ccnc2C(=O)c2ccc(NC(=O)c3cc(N4CCN(C)CC4)cc(C(F)(F)F)c3)cc2)n1`, the GI50 in assay [1] stood at 5.92 µM. Also, the GI50 result in the assay with U-937 was “inactive”.

Consider `C[C@H](O)CNc1nccc(-n2ccnc2C(=O)c2cccc(NC(=O)c3cc(N4CCOCC4)cc(C(F)(F)F)c3)c2)n1`, for which, in the assay on A375P, the GI50 result is “inactive”. Further, in assay [2], the GI50 was 4.9 µM.

For `CC(=O)N1CCC(C(=O)Nc2cccc(Cc3nccn3-c3ccnc(NC[C@H](C)O)n3)c2)CC1`, the GI50 entry in the assay on A375P and with U-937 was “inactive” throughout.

With `C[C@H](O)CNc1nccc(-n2ccnc2C(=O)c2cccc(NC(=O)c3cccc(Cl)c3)c2)n1`, the GI50 in assay [1] and in assay [2] was over 30 µM in each case.

For the compound `CCN1CCN(Cc2ccc(NC(=O)Nc3cccc(Cc4nccn4-c4ccnc(NC[C@H](C)O)n4)c3)cc2C(F)(F)F)CC1`, the GI50 in assay [1] and in assay [2] was over 30 µM throughout.

On to `C[C@H](O)CNc1nccc(-n2ccnc2Cc2cccc(NC(=O)Nc3cccc(Cl)c3)c2)n1`, for which the GI50 in assay [1] was 26.2 µM; in assay [2] it was 15.3 µM.

Turning to `C[C@H](O)CNc1nccc(-n2ccnc2Cc2cccc(NC(=O)c3ccc(Cl)cc3)c2)n1`, the GI50 in assay [1] was 10.2 µM; in assay [2], over 30 µM.

On to `C[C@H](O)CNc1nccc(-n2ccnc2C(=O)c2ccc(NC(=O)Nc3ccc(Cl)c(Cl)c3)cc2)n1`, for which the GI50 is over 30 µM in assay [1] and 11.6 µM in assay [2].

As to `C[C@H](O)CNc1nccc(-n2ccnc2Cc2cccc(NC(=O)c3cnccn3)c2)n1`, the GI50 entry in the assay with A375P is “inactive”. Further, the GI50 in assay [2] is over 30 µM.

`C[C@H](O)CNc1nccc(-n2ccnc2Cc2cccc(NC(=O)C3Cc4ccccc4N3)c2)n1` (stereo partly drawn): the GI50 in assay [1] is over 30 µM; in assay [2], 18.5 µM.

Take `C[C@H](O)CNc1nccc(-n2ccnc2C(=O)c2ccc(NC(=O)c3cccc(Cl)c3)cc2)n1`: the GI50 in assay [1] and in assay [2] was over 30 µM in each case.

With `C[C@H](O)CNc1nccc(-n2ccnc2C(=O)c2cccc(NC(=O)c3ccc(Cl)cc3)c2)n1`, the GI50 in assay [1] and in assay [2] was over 30 µM in each case.

As for `C[C@H](O)CNc1nccc(-n2ccnc2C(=O)c2cccc(NC(=O)c3cc(N4CCN(C)CC4)cc(C(F)(F)F)c3)c2)n1`, the 50% growth inhibitory concentration (GI50) in assay [1] came out at 27.8 µM. Besides, in the assay with U-937, the GI50 entry is “inactive”.

`Cc1c(C)c2c(c(C)c1O)CC[C@](C)(C(=O)Nc1cccc(Cc3nccn3-c3ccnc(NC[C@H](C)O)n3)c1)O2`: the GI50 result in the assay with A375P is “inactive”. Further, the GI50 in assay [2] came to 23.6 µM.

With `CNC(=O)c1cc(Oc2ccc(NC(=O)Nc3ccc(Cl)c(C(F)(F)F)c3)cc2)ccn1` [SORAFENIB], the values for the GI50 in assay [1] and in assay [2] were 3.4 µM and 2.74 µM, respectively.

On to `C[C@H](O)CNc1nccc(-n2ccnc2Cc2cccc(NC(=O)c3cnn(-c4ccccc4)c3C(F)(F)F)c2)n1`, for which the values for the GI50 in assay [1] and in assay [2] were 6.39 µM and 25.8 µM, respectively.

As to `C[C@H](O)CNc1nccc(-n2ccnc2Cc2cccc(NC(=O)c3cc(N4CCOCC4)cc(C(F)(F)F)c3)c2)n1`, the GI50 in assay [1] stood at 6.6 µM; in assay [2] it was 9.7 µM.

As to `C[C@H](O)CNc1nccc(-n2ccnc2Cc2cccc(NC(=O)c3ccncc3)c2)n1`, the concentration for 50% growth inhibition (GI50) in assay [1] was found to be 8.92 µM. Also, the GI50 entry in the assay on U-937 is “inactive”.

Consider `C[C@H](O)CNc1nccc(-n2ccnc2C(=O)c2cccc(NC(=O)c3cccc(C(F)(F)F)c3)c2)n1`, for which the GI50 in assay [1] is over 30 µM; in assay [2], 3.78 µM.

Consider `C[C@H](O)CNc1nccc(-n2ccnc2Cc2cccc(NC(=O)Nc3ccc(Cl)c(Cl)c3)c2)n1`, for which the values for the GI50 in assay [1] and in assay [2] were 19.2 µM and 1.73 µM, respectively.

With `C[C@H](O)CNc1nccc(-n2ccnc2Cc2cccc(NC(=O)c3ccccc3F)c2)n1`, the GI50 was 7.45 µM in assay [1] and over 30 µM in assay [2].

Turning to `C[C@H](O)CNc1nccc(-n2ccnc2Cc2cccc(NC(=O)c3ccc4ccccc4n3)c2)n1`, the GI50 result in the assay on A375P is “inactive”. The GI50 in assay [2] came out at 23.8 µM.

As for `C[C@H](O)CNc1nccc(-n2ccnc2C(=O)c2ccc(NC(=O)c3ccc(Cl)c(C(F)(F)F)c3)cc2)n1`, the GI50 in assay [1] and in assay [2] was over 30 µM each time.

For `C[C@H](O)CNc1nccc(-n2ccnc2Cc2cccc(NC(=O)c3ccc(Cl)c(C(F)(F)F)c3)c2)n1`, the GI50 in assay [1] was 3.3 µM; in assay [2], 6.83 µM.

In the case of `COc1ccc(-c2ccc(C(=O)Nc3cccc(C(=O)c4nccn4-c4ccnc(NC[C@H](C)O)n4)c3)o2)cc1`, the GI50 in assay [1] was determined as 9.39 µM; in assay [2] it was 2.55 µM.

Regarding `C[C@H](O)CNc1nccc(-n2ccnc2C(=O)c2ccc(NC(=O)Nc3ccc(Cl)c(C(F)(F)F)c3)cc2)n1`, the GI50 in assay [1] is over 30 µM; in assay [2], 7.45 µM.

Regarding `C[C@H](O)CNc1nccc(-n2ccnc2Cc2cccc(NC(=O)C(c3ccc(Cl)cc3)c3ccc(Cl)cc3)c2)n1`, the GI50 turned out to be 3.97 µM in assay [1] and 3.24 µM in assay [2].

Take `C[C@H](O)CNc1nccc(-n2ccnc2Cc2cccc(NC(=O)Cc3c[nH]c4ccccc34)c2)n1`: the GI50 in assay [1] and in assay [2] was over 30 µM throughout.

Consider `C[C@H](O)CNc1nccc(-n2ccnc2Cc2cccc(NC(=O)c3ccc(N4CCOCC4)c(C(F)(F)F)c3)c2)n1`, for which the GI50 entry with A375P and in the assay with U-937 was “inactive” each time.

With `Cc1cc(C)cc(C(=O)Nc2cccc(Cc3nccn3-c3ccnc(NC[C@H](C)O)n3)c2)c1`, the GI50 entry with A375P was “inactive”. The concentration for 50% growth inhibition (GI50) in assay [2] is 16.8 µM.

For `C[C@H](O)CNc1nccc(-n2ccnc2C(=O)c2cccc(NC(=O)Nc3ccc(Cl)c(Cl)c3)c2)n1`, the concentration for 50% growth inhibition (GI50) was over 30 µM in assay [1] and 14.7 µM in assay [2].

The values above are taken from ChEMBL document CHEMBL3351907, “Design, synthesis and biological evaluation of benzyl 2-(1H-imidazole-1-yl) pyrimidine analogues as selective and potent Raf inhibitors” (Bioorg Med Chem Lett, 2014).
